In US11667630B2, “Nitrogen-containing 6-membered cyclic compound” (Asahi Kasei Pharma Corporation, priority 2017, dated 2023):

Molecular target: human EP4 receptor (Homo sapiens, UniProt P35408)
Assay: Measurement of EP4 agonist activity (cAMP production)
Type: cell-based
Design: expressed in transfected cells; host or cells: HEK293
Conditions: cAMP production in HEK293 cells stably expressing human EP4 receptor; average values where measured two or more times
Method: In order to investigate EP4 receptor agonist activity of the compounds of the present invention, production of cAMP was measured in HEK293 cells that were made to stably express the human EP4 receptor.
By using Refseq Database, prostaglandin E receptor was searched for. As a result, gene information of human EP4 (NM_000958) receptor was obtained. On the basis of this sequence information, the human EP4 receptor gene was cloned by PCR in a conventional manner using human cDNA as the template, and HEK293 cells that were made to stably express the human EP4 receptor were established. When cryopreserved cells of this strain were thawed and used, cells subcultured three times or more within a certain period of time (about 1 to 2 weeks) by using Dulbecco's Modified Eagle's Medium (Dulbecco's Modified Eagle's Medium may be henceforth abbreviated as DMEM) containing 10% FBS, 50 units each of penicillin and streptomycin were used. The subcultured cells were inoculated in wells of a poly-D-lysine-coated 96-well plate at a density of 2×10^4 to 2.5×10^4 cells/well, and cultured for one day. The medium in the wells was removed by suction, then DMEM (80 μL) was added to each well, and incubation was performed at 37° C. for 15 minutes. […] The reaction was allowed at 37° C. for 30 minutes, then the medium was removed by suction, Assay/Lysis Buffer (100 μL) contained in cAMP Screen Kit (produced by Applied Biosystems) was added to terminate the reaction. Then, the reaction mixture was incubated at 37° C. for 30 minutes to prepare a sample for quantification of cAMP, and the amount of cAMP in the sample was quantified according to the method indicated in cAMP Screen Kit. By non-linear regression of the compound concentration and the amount of cAMP, the concentration of the compound required for increasing cAMP to 50% of the maximum increase (EC50 value) was calculated by using the Kaleida Graph.

Chain of human EP4 receptor (P35408 whole entry): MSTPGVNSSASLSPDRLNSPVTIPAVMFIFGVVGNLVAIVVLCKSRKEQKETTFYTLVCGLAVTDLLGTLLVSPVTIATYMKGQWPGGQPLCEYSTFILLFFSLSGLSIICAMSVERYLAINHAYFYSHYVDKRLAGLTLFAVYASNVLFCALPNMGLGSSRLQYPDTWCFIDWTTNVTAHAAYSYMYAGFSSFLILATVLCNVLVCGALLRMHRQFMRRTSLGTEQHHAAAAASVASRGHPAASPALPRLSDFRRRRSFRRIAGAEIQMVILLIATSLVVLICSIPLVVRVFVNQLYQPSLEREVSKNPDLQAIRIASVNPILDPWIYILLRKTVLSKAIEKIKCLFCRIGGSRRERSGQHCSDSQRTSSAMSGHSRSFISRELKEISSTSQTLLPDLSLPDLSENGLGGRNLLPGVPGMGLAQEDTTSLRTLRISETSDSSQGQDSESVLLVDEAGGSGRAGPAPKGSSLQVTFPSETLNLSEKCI

SMILES	EC50 [nM]
O=C(O)c1cc(Br)c(CCN2C(=O)SCCN2CCC(O)Cc2cccc(C#Cc3ccsc3)c2)s1 (stereo not drawn) [Example 2, 4-Bromo-5-(2-(4-(3-hydroxy-4-(3-(thiophen-3-ylethynyl)phenyl)butyl)-2-oxo-1,3,4-thiadiazinan-3-yl)ethyl)thiophene-2-carboxylic acid]	0.035
N#Cc1cc(C#Cc2cccc(CC(O)CCN3CCSC(=O)N3CCc3ccc(C(=O)O)s3)c2)cs1 (stereo not drawn) [Example 12, 5-(2-(4-(4-(3-((5-Cyanothiophen-3-yl)ethynyl)phenyl)-3-hydroxybutyl)-2-oxo-1,3,4-thiadiazinan-3-yl)ethyl)thiophene-2-carboxylic acid]	0.6
Cc1cscc1C#Cc1cccc(CC(O)CCN2CCSC(=O)N2CCc2ccc(C(=O)O)s2)c1 (stereo not drawn) [Example 4, 5-(2-(4-(3-Hydroxy-4-(3-((4-methylthiophen-3-yl)ethynyl)phenyl)butyl)-2-oxo-1,3,4-thiadiazinan-3-yl)ethyl)thiophene-2-carboxylic acid]	0.34
COc1ccccc1C#Cc1cccc(CC(O)CCN2CCSC(=O)N2CCc2ccc(C(=O)O)s2)c1 (stereo not drawn) [Example 16, 5-(2-(4-(3-Hydroxy-4-(3-((2-methoxyphenyl)ethynyl)phenyl)butyl)-2-oxo-1,3,4-thiadiazinan-3-yl)ethyl)thiophene-2-carboxylic acid]	0.4
O=C(O)c1ccc(CCN2C(=O)SCCN2CCC(O)Cc2cccc(C#Cc3ccsc3Cl)c2)s1 (stereo not drawn) [Example 5, 5-(2-(4-(4-(3-((2-Chlorothiophen-3-yl)ethynyl)phenyl)-3-hydroxybutyl)-2-oxo-1,3,4-thiadiazinan-3-yl)ethyl)thiophene-2-carboxylic acid]	0.3
O=C(O)c1ccc(CCN2C(=O)SCCN2CCC(O)Cc2cccc(C#Cc3ccccc3)c2)s1 (stereo not drawn) [Example 15, 5-(2-(4-(3-Hydroxy-4-(3-(phenylethynyl)phenyl)butyl)-2-oxo-1,3,4-thiadiazinan-3-yl)ethyl)thiophene-2-carboxylic acid]	0.63
N#Cc1cscc1C#Cc1cccc(CC(O)CCN2CCSC(=O)N2CCc2ccc(C(=O)O)s2)c1 (stereo not drawn) [Example 7, 5-(2-(4-(4-(3-((4-Cyanothiophen-3-yl)ethynyl)phenyl)-3-hydroxybutyl)-2-oxo-1,3,4-thiadiazinan-3-yl)ethyl)thiophene-2-carboxylic acid]	0.09

Second part, the compound after the results:

EC50 [nM]	SMILES
0.5	O=C(O)c1ccc(CCN2C(=O)SCCN2CCC(O)Cc2cccc(C#Cc3cscc3-c3ccccc3)c2)s1 (stereo not drawn) [Example 21, 5-(2-(4-(3-Hydroxy-4-(3-((4-phenylthiophen-3-yl)ethynyl)phenyl)butyl)-2-oxo-1,3,4-thiadiazinan-3-yl)ethyl)thiophene-2-carboxylic acid]
0.087	O=C(O)c1cc(Cl)c(CCN2C(=O)SCCN2CCC(O)Cc2cccc(C#Cc3ccccn3)c2)s1 (stereo not drawn) [Example 28, 4-Chloro-5-(2-(4-(3-hydroxy-4-(3-(pyridin-2-ylethynyl)phenyl)butyl)-2-oxo-1,3,4-thiadiazinan-3-yl)ethyl)thiophene-2-carboxylic acid]
0.09	O=C(O)c1ccc(CCN2C(=O)SCCN2CCC(O)Cc2cccc(/C=C/c3ccsc3)c2)s1 (stereo not drawn) [Example 27, (E)-5-(2-(4-(3-Hydroxy-4-(3-(2-(thiophen-3-yl)vinyl)phenyl)butyl)-2-oxo-1,3,4-thiadiazinan-3-yl)ethyl)thiophene-2-carboxylic acid]
0.1	Cc1ccc(CC(O)CCN2CCSC(=O)N2CCc2ccc(C(=O)O)s2)cc1C#Cc1ccsc1 (stereo not drawn) [Example 18, 5-(2-(4-(3-Hydroxy-4-(4-methyl-3-(thiophen-3-ylethynyl)phenyl)butyl)-2-oxo-1,3,4-thiadiazinan-3-yl)ethyl)thiophene-2-carboxylic acid]
0.16	O=C(O)c1ccc(CCN2C(=O)OCCN2CCC(O)Cc2cccc(C#Cc3ccsc3)c2)s1 (stereo not drawn) [Example 29, 5-(2-(4-(3-Hydroxy-4-(3-(thiophen-3-ylethynyl)phenyl)butyl)-2-oxo-1,3,4-oxadiazinan-3-yl)ethyl)thiophene-2-carboxylic acid]
